# From the supplement of paper PMC10307832
# How the values were obtained:
# Assay in all cases: relative viability (nuclei count vs DMSO), 5 days (fraction); higher = more cells survive
# SK-LU-1 = test system: SK-LU-1
# Procedure, shortened: (§1)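 Lung cancer cell lines, seeded in 1536-well plates, were treated the following day by pin tool with a single drug or with five library-drug doses (not always all listed) in √10 steps on top of a fixed anchor-drug dose. Cells were fixed and nuclei stained in one step after 5 days, and nuclei were counted. Relative viability is the nuclei count for treated wells divided by that for vehicle wells, reported as medians of duplicate plates.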
# PC-3 [JPC-3] = test system: PC-3 [JPC-3]
# Procedure, shortened: as §1
# NCI-H1793 = test system: NCI-H1793
# Procedure, shortened: as §1
# SW 1573 = test system: SW 1573
# Procedure, shortened: as §1
# A-427 = test system: A-427
# Procedure, shortened: as §1
# LU99A = test system: LU99A
# Procedure, shortened: as §1
# NCI-H1792 = test system: NCI-H1792
# Procedure, shortened: as §1
# LXF-289 = test system: LXF-289
# Procedure, shortened: as §1
# COR-L23 = test system: COR-L23
# Procedure, shortened: as §1
# NCI-H2170 = test system: NCI-H2170
# Procedure, shortened: as §1
# ABC-1 = test system: ABC-1
# Procedure, shortened: as §1
# NCI-H1944 = test system: NCI-H1944
# Procedure, shortened: as §1
# EMC-BAC-2 = test system: EMC-BAC-2
# Procedure, shortened: as §1
# NCI-H727 = test system: NCI-H727
# Procedure, shortened: as §1
# NCI-H2009 = test system: NCI-H2009
# Procedure, shortened: as §1
# NCI-H596 = test system: NCI-H596
# Procedure, shortened: as §1
# NCI-H2228 = test system: NCI-H2228
# Procedure, shortened: as §1
# LK-2 = test system: LK-2
# Procedure, shortened: as §1
# NCI-H3122 = test system: NCI-H3122
# Procedure, shortened: as §1
# HOP-62 = test system: HOP-62
# Procedure, shortened: as §1
# SK-MES-1 = test system: SK-MES-1
# Procedure, shortened: as §1
# HARA = test system: HARA
# Procedure, shortened: as §1
# NCI-H1993 = test system: NCI-H1993
# Procedure, shortened: as §1
structure (smiles),measurement,setting,value
Clc1ccc(Nc2nnc(Cc3ccncc3)c3ccccc23)cc1 [Vatalanib] + CS(=O)(=O)N1CCN(Cc2cc3nc(-c4cccc5[nH]ncc45)nc(N4CCOCC4)c3s2)CC1 [Pictilisib] (partner 1 µM),relative viability,SK-LU-1; first compound 0.04 µM,0.596
same,relative viability,SK-LU-1; first compound 0.1265 µM,0.581
same,relative viability,SK-LU-1; first compound 0.4 µM,0.523
same,relative viability,SK-LU-1; first compound 1.265 µM,0.535
same,relative viability,SK-LU-1; first compound 4 µM,0.527
same,relative viability,PC-3 [JPC-3]; first compound 0.04 µM,0.796
same,relative viability,PC-3 [JPC-3]; first compound 0.1265 µM,0.715
same,relative viability,PC-3 [JPC-3]; first compound 0.4 µM,0.645
same,relative viability,PC-3 [JPC-3]; first compound 1.265 µM,0.726
same,relative viability,PC-3 [JPC-3]; first compound 4 µM,0.752
same,relative viability,NCI-H1793; first compound 0.04 µM,0.218
same,relative viability,NCI-H1793; first compound 0.1265 µM,0.326
same,relative viability,NCI-H1793; first compound 0.4 µM,0.382
same,relative viability,NCI-H1793; first compound 1.265 µM,0.293
same,relative viability,NCI-H1793; first compound 4 µM,0.347
same,relative viability,SW 1573; first compound 0.04 µM,0.596
same,relative viability,SW 1573; first compound 0.1265 µM,0.525
same,relative viability,SW 1573; first compound 0.4 µM,0.544
same,relative viability,SW 1573; first compound 1.265 µM,0.408
same,relative viability,SW 1573; first compound 4 µM,0.556
same,relative viability,A-427; first compound 0.04 µM,0.667
same,relative viability,A-427; first compound 0.1265 µM,0.671
same,relative viability,A-427; first compound 0.4 µM,0.736
same,relative viability,A-427; first compound 1.265 µM,0.624
same,relative viability,A-427; first compound 4 µM,0.677
same,relative viability,LU99A; first compound 0.04 µM,0.34
same,relative viability,LU99A; first compound 0.1265 µM,0.306
same,relative viability,LU99A; first compound 0.4 µM,0.375
same,relative viability,LU99A; first compound 1.265 µM,0.306
same,relative viability,LU99A; first compound 4 µM,0.312
same,relative viability,NCI-H1792; first compound 0.04 µM,0.279
same,relative viability,NCI-H1792; first compound 0.1265 µM,0.327
same,relative viability,NCI-H1792; first compound 0.4 µM,0.249
same,relative viability,NCI-H1792; first compound 1.265 µM,0.276
same,relative viability,NCI-H1792; first compound 4 µM,0.28
same,relative viability,LXF-289; first compound 0.04 µM,0.894
same,relative viability,LXF-289; first compound 0.1265 µM,0.737
same,relative viability,LXF-289; first compound 0.4 µM,0.748
same,relative viability,LXF-289; first compound 1.265 µM,0.702
same,relative viability,LXF-289; first compound 4 µM,0.747
same,relative viability,COR-L23; first compound 0.04 µM,0.992
same,relative viability,COR-L23; first compound 0.1265 µM,0.745
same,relative viability,COR-L23; first compound 0.4 µM,0.854
same,relative viability,COR-L23; first compound 1.265 µM,0.758
same,relative viability,COR-L23; first compound 4 µM,0.64
same,relative viability,NCI-H2170; first compound 0.04 µM,0.319
same,relative viability,NCI-H2170; first compound 0.1265 µM,0.331
same,relative viability,NCI-H2170; first compound 0.4 µM,0.329
same,relative viability,NCI-H2170; first compound 1.265 µM,0.356
same,relative viability,NCI-H2170; first compound 4 µM,0.306
same,relative viability,ABC-1; first compound 0.04 µM,0.888
same,relative viability,ABC-1; first compound 0.1265 µM,0.78
same,relative viability,ABC-1; first compound 0.4 µM,0.877
same,relative viability,ABC-1; first compound 1.265 µM,0.71
same,relative viability,ABC-1; first compound 4 µM,0.784
same,relative viability,NCI-H1944; first compound 0.04 µM,0.351
same,relative viability,NCI-H1944; first compound 0.1265 µM,0.316
same,relative viability,NCI-H1944; first compound 0.4 µM,0.37
same,relative viability,NCI-H1944; first compound 1.265 µM,0.356
same,relative viability,NCI-H1944; first compound 4 µM,0.352
same,relative viability,EMC-BAC-2; first compound 0.04 µM,0.559
same,relative viability,EMC-BAC-2; first compound 0.1265 µM,0.556
same,relative viability,EMC-BAC-2; first compound 0.4 µM,0.572
same,relative viability,EMC-BAC-2; first compound 1.265 µM,0.533
same,relative viability,EMC-BAC-2; first compound 4 µM,0.525
same,relative viability,NCI-H727; first compound 0.04 µM,0.421
same,relative viability,NCI-H727; first compound 0.1265 µM,0.355
same,relative viability,NCI-H727; first compound 0.4 µM,0.359
same,relative viability,NCI-H727; first compound 1.265 µM,0.399
same,relative viability,NCI-H727; first compound 4 µM,0.433
same,relative viability,NCI-H2009; first compound 0.04 µM,0.977
same,relative viability,NCI-H2009; first compound 0.1265 µM,0.656
same,relative viability,NCI-H2009; first compound 0.4 µM,0.833
same,relative viability,NCI-H2009; first compound 1.265 µM,0.798
same,relative viability,NCI-H2009; first compound 4 µM,0.885
same,relative viability,NCI-H596; first compound 0.04 µM,0.347
same,relative viability,NCI-H596; first compound 0.1265 µM,0.353
same,relative viability,NCI-H596; first compound 0.4 µM,0.392
same,relative viability,NCI-H596; first compound 1.265 µM,0.371
same,relative viability,NCI-H596; first compound 4 µM,0.393
same,relative viability,NCI-H2228; first compound 0.04 µM,0.313
same,relative viability,NCI-H2228; first compound 0.1265 µM,0.432
same,relative viability,NCI-H2228; first compound 0.4 µM,0.317
same,relative viability,NCI-H2228; first compound 1.265 µM,0.379
same,relative viability,NCI-H2228; first compound 4 µM,0.432
same,relative viability,LK-2; first compound 0.04 µM,0.531
same,relative viability,LK-2; first compound 0.1265 µM,0.561
same,relative viability,LK-2; first compound 1.265 µM,0.651
same,relative viability,LK-2; first compound 4 µM,0.569
same,relative viability,NCI-H3122; first compound 0.04 µM,0.66
same,relative viability,NCI-H3122; first compound 0.1265 µM,0.534
same,relative viability,NCI-H3122; first compound 0.4 µM,0.646
same,relative viability,NCI-H3122; first compound 1.265 µM,0.573
same,relative viability,NCI-H3122; first compound 4 µM,0.593
same,relative viability,HOP-62; first compound 0.04 µM,0.758
same,relative viability,HOP-62; first compound 0.4 µM,0.632
same,relative viability,HOP-62; first compound 1.265 µM,0.702
same,relative viability,HOP-62; first compound 4 µM,0.713
same,relative viability,SK-MES-1; first compound 0.04 µM,0.408
same,relative viability,SK-MES-1; first compound 0.1265 µM,0.351
same,relative viability,SK-MES-1; first compound 0.4 µM,0.387
same,relative viability,SK-MES-1; first compound 1.265 µM,0.338
same,relative viability,SK-MES-1; first compound 4 µM,0.365
same,relative viability,HARA; first compound 0.04 µM,0.555
same,relative viability,HARA; first compound 0.1265 µM,0.414
same,relative viability,HARA; first compound 0.4 µM,0.351
same,relative viability,HARA; first compound 1.265 µM,0.454
same,relative viability,HARA; first compound 4 µM,0.369
same,relative viability,NCI-H1993; first compound 0.04 µM,0.782
same,relative viability,NCI-H1993; first compound 0.1265 µM,0.898
same,relative viability,NCI-H1993; first compound 0.4 µM,0.847
same,relative viability,NCI-H1993; first compound 1.265 µM,0.816
same,relative viability,NCI-H1993; first compound 4 µM,0.887
